What follows are compounds tested on breast cancer cell lines BT20, MDA-MB-231 and SUM-i 159 (assay: Drug response: breast cancer cell line proliferation inhibition). Details: same dose as in the triple-drug combinations, BT20, MDA-MB-231, SUM-i 159, FIG. 9.
Format: cell-based
Experimental: The breast cancer cell lines BT20, MDA-MB-231 and SUM-i 159 were treated with HDAC inhibitor (MS275), ISP inhibitor (17-AAG), mTOR inhibitor (Niclosamide), polo-like kinase inhibitor (1312536) and histone demethylase inhibitor (GSK-J4).

| Compound | inhibition of breast cancer cell line proliferation, single treatment |
| --- | --- |
| CCOC(=O)CCNc1cc(N2CCc3ccccc3CC2)nc(-c2ccccn2)n1 [GSK-J4] | ineffective |
| CC[C@@H]1C(=O)N(C)c2cnc(Nc3ccc(C(=O)NC4CCN(C)CC4)cc3OC)nc2N1C1CCCC1 [compound 1312536] | ineffective |
| O=C(Nc1ccc([N+](=O)[O-])cc1Cl)c1cc(Cl)ccc1O [Niclosamide] | ineffective |
| Nc1ccccc1NC(=O)c1ccc(CNC(=O)OCc2cccnc2)cc1 [MS275, Entinostat] | ineffective |

— patent publication US20250305055A1, “PROGNOSTIC/PREDICTIVE BREAST CANCER SIGNATURE” (priority 2021, published 2025)
